Earlier results, collected in paper PMC7395068, “The evolution of strategies to minimise the risk of human drug-induced liver injury (DILI) in drug discovery and development” (Archives of Toxicology, 2020).
Read-outs that look alike come from different tables or passages of the source.

How the values were obtained:
[1] = cited from earlier work
[2] = cited from earlier work; remark: listed apart in the source
[3] = tested on: primary human hepatocytes, NIH3T3 fibroblasts, BSEP, CYP3A4; details: cited from earlier work
[4] = In vitro Assay, ref Schadt 2015

## CC1(C)NC(=O)N(c2ccc([N+](=O)[O-])c(C(F)(F)F)c2)C1=O [nilutamide]
[1]; ref Chen 2016
  DILI +VE (5-8), DILI -VE (-4): +VE
  DILI severity category: vMost-DILI-Concern
[2]; […]
  In vivo DILI: +VE

## CC1COc2c(N3CCN(C)CC3)c(F)cc3c(=O)c(C(=O)O)cn1c23 (stereo not drawn) [ofloxacin]
[1]; in vivo
  DILI +VE (5-8), DILI -VE (-4): +VE
  DILI severity category: vLess-DILI-Concern
[2]; in vivo
  In vivo DILI: +VE

## COc1ccc2[nH]c([S+]([O-])Cc3ncc(C)c(OC)c3C)nc2c1 (stereo not drawn) [omeprazole]
[1]; ref Chen 2016
  DILI +VE (5-8), DILI -VE (-4): +VE
  DILI severity category: vLess-DILI-Concern
[2]; […]
  In vivo DILI: -VE

## CN1CC[C@]23c4c5ccc(O)c4O[C@H]2C(=O)CC[C@@]3(O)[C@H]1C5 [oxymorphone]
[1]; ref Chen 2016
  DILI +VE (5-8), DILI -VE (-4): -VE
  DILI severity category: vNo-DILI-Concern
[2]; […]
  In vivo DILI: -VE

## CC(=O)O[C@H]1C(=O)[C@@]2(C)[C@H]([C@H](OC(=O)c3ccccc3)[C@]3(O)C[C@H](OC(=O)[C@H](O)[C@@H](NC(=O)c4ccccc4)c4ccccc4)C(C)=C1C3(C)C)[C@]1(OC(C)=O)CO[C@@H]1C[C@@H]2O [paclitaxel]
[1]; ref Chen 2016
  DILI +VE (5-8), DILI -VE (-4): +VE
  DILI severity category: vLess-DILI-Concern
[2]; ref O'Brien 2006
  In vivo DILI: +VE
[2]; ref Persson 2013
  In vivo DILI: +VE

## NC1=NC(=O)C(c2ccccc2)O1 (stereo not drawn) [pemoline]
[1]; in vivo
  DILI +VE (5-8), DILI -VE (-4): +VE
  DILI severity category: vMost-DILI-Concern
[2]; in vivo
  In vivo DILI: +VE

## C[C@H]1[C@H](c2ccccc2)OCCN1C [phendimetrazine]
[1]; ref Chen 2016
  DILI +VE (5-8), DILI -VE (-4): -VE
  DILI severity category: vNo-DILI-Concern
[2]; […]
  In vivo DILI: -VE

## CC(C)(N)Cc1ccccc1 [phentermine]
[1]; ref Chen 2016
  DILI +VE (5-8), DILI -VE (-4): +VE
  DILI severity category: vLess-DILI-Concern
[2]; […]
  In vivo DILI: -VE

## CCN(CC)CCNC(=O)c1ccc(N)cc1 [procainamide]
[1]; in vivo
  DILI +VE (5-8), DILI -VE (-4): +VE
  DILI severity category: vLess-DILI-Concern
[2]; in vivo
  In vivo DILI: +VE

## CNNCc1ccc(C(=O)NC(C)C)cc1 [procarbazine]
[1]; in vivo
  DILI +VE (5-8), DILI -VE (-4): +VE
  DILI severity category: vLess-DILI-Concern
[2]; in vivo
  In vivo DILI: +VE

## O=P(O)(O)C(O)(Cc1cccnc1)P(=O)(O)O [risedronate]
[1]; ref Chen 2016
  DILI +VE (5-8), DILI -VE (-4): -VE
  DILI severity category: Ambiguous DILI-concern
[2]; […]
  In vivo DILI: -VE

## C#CCN(C)[C@H](C)Cc1ccccc1 [selegiline]
[1]; in vivo
  DILI +VE (5-8), DILI -VE (-4): -VE
  DILI severity category: vNo-DILI-Concern
[2]; in vivo
  In vivo DILI: -VE

## CCOC(=O)COC1CCN(C(=O)[C@H](C)NC(=O)c2ccc(C(=N)NO)cc2)CC1 [sibrafiban]
[3]; [4]
  Cellular toxicity (3T3 cells): -VE
  Combined Assay: -VE
  GSH adduct HML: -VE
  Hepatocyte cellular toxicity: -VE
  MitoTox 3T3: -VE
  TDI CYP3A4: -VE
  hBSEP inhibition: -VE
[2]; ref Schadt 2015
  In vivo DILI: -VE

## CN1C(C(=O)Nc2nccs2)=C(O)c2ccccc2S1(=O)=O [sudoxicam]
[3]
  Cellular toxicity (3T3 cells): -VE
  Combined Assay: -VE
  GSH adduct HML: -VE
  Hepatocyte cellular toxicity: -VE
  MitoTox 3T3: -VE
  TDI CYP3A4: -VE
  hBSEP inhibition: -VE

## COc1cc2nc(N3CCN(C(=O)C4CCCO4)CC3)nc(N)c2cc1OC (stereo not drawn) [terazosin]
[1]; ref Chen 2016
  DILI +VE (5-8), DILI -VE (-4): -VE
  DILI severity category: vNo-DILI-Concern
[2]; […]
  In vivo DILI: -VE
[2]; ref Aleo 2019
  In vivo DILI: -VE

## C[C@]12CC[C@H]3[C@@H](CCC4=CC(=O)CC[C@@]43C)[C@@H]1CC[C@@H]2O [testosterone]
[1]; in vivo
  DILI +VE (5-8), DILI -VE (-4): +VE
  DILI severity category: vMost-DILI-Concern
[2]; in vivo
  In vivo DILI: -VE

## Cc1cccc(Nc2ccncc2S(=O)(=O)NC(=O)NC(C)C)c1 [torasemide]
[1]; ref Chen 2016
  DILI +VE (5-8), DILI -VE (-4): -VE
  DILI severity category: Ambiguous DILI-concern
[2]; […]
  In vivo DILI: -VE

## COc1cc(Cc2cnc(N)nc2N)cc(OC)c1OC [trimethoprim]
[1]; ref Chen 2016
  DILI +VE (5-8), DILI -VE (-4): +VE
  DILI severity category: vLess-DILI-Concern
[2]; […]
  In vivo DILI: -VE
[2]; ref Garside 2014
  In vivo DILI: +VE

## capreomycin
[1]; in vivo
  DILI +VE (5-8), DILI -VE (-4): -VE
  DILI severity category: Ambiguous DILI-concern
[2]; in vivo
  In vivo DILI: -VE
